Reference: patent publication US12338237B2, “Derivatives having 1,2,3,4-tetrahydronaphthalene moiety or pharmaceutically acceptable salt thereof and pharmaceutical compositions comprising the same” (YUHAN CORPORATION, priority 2019, dated 2025)

How the values were obtained:
[1] = target: glucosylceramide synthase (GCS) (Homo sapiens (Human), UniProt Q16739); test: Evaluation of inhibitory activities against GCS (enzyme reaction with A549 cell lysate, NBD C6-ceramide, HPLC fluorescence); assay type: biochemical; conditions: GCS activity in A549 cell lysate, 37° C. for 90 minutes
Method in brief: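 Lysate of A549 cells in 50 mM HEPES pH 7.3 incubated with test compound and NBD C6-ceramide at 37 °C for 90 min; lipids extracted with chloroform/methanol and GlcCer and ceramide peaks quantified by HPLC fluorescence. Activity from GlcCer area fraction, normalised between DMSO and ibiglustat controls.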

GM1 production = test: cells; assay type: cell-based; conditions: Homo sapiens, Jurkat, 72 h

Chain of glucosylceramide synthase (GCS) (Q16739 whole entry, looked up): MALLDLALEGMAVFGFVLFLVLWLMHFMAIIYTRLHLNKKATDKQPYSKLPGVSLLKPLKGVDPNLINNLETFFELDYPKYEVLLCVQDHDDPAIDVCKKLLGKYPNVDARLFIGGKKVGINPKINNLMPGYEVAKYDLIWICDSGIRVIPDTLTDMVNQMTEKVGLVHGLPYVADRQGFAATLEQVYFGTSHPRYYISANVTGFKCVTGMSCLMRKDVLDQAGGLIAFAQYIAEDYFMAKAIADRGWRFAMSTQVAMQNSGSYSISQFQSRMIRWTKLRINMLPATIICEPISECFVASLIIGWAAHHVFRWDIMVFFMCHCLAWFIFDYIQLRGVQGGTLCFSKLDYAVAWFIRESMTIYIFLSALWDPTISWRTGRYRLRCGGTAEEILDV

Row | Compound | IC50 [1] | IC50 (GM1 production)
1 | O=C(NC1c2ccc(-c3cccc(C(F)F)c3)cc2CCC12CC2)O[C@@H]1CN2CCC1CC2 (stereo partly drawn) [Example 206, (S)-quinuclidin-3-yl (6′-(3-(difluoromethyl)phenyl)-3′,4′-dihydro-1′H-spiro[cyclopropane-1,2′-naphthalen]-1′-yl)carbamate] | 10.2 nM | 15.2 nM
2 | COCCOc1ccc(-c2ccc3c(c2)C(NC(=O)O[C@@H]2CN4CCC2CC4)C(C)(C)CC3)cc1 (stereo partly drawn) [Example 165, (S)-quinuclidin-3-yl (7-(4-(2-methoxyethoxy)phenyl)-2,2-dimethyl-1,2,3,4-tetrahydronaphthalen-1-yl)carbamate] | 18.4 nM | 24.3 nM
3 | CC1(C)CCc2ccc(-c3ccc(C(F)(F)F)cc3)cc2C1NC(=O)O[C@@H]1CN2CCC1CC2 (stereo partly drawn) [Example 153, (S)-quinuclidin-3-yl (2,2-dimethyl-7-(4-(trifluoromethyl)phenyl)-1,2,3,4-tetrahydronaphthalen-1-yl)carbamate] | 4.43 nM | 5.54 nM
4 | COc1ccc(-c2ccc3c(c2)CCC(C)(C)C3NC(=O)O[C@@H]2CN3CCC2CC3)c(F)c1 (stereo partly drawn) [Example 148, (S)-quinuclidin-3-yl (6-(2-fluoro-4-methoxyphenyl)-2,2-dimethyl-1,2,3,4-tetrahydronaphthalen-1-yl)carbamate] | 3.21 nM | 4.6 nM
5 | COc1ccc(OC)c(-c2ccc3c(c2)CCC(C)(C)C3NC(=O)O[C@@H]2CN3CCC2CC3)c1 (stereo partly drawn) [Example 135, (S)-quinuclidin-3-yl (6-(2,5-dimethoxyphenyl)-2,2-dimethyl-1,2,3,4-tetrahydronaphthalen-1-yl)carbamate] | 2.81 nM | 8.3 nM
6 | CC1(C)CCc2cc(-c3ccc(F)cc3F)ccc2C1NC(=O)O[C@@H]1CN2CCC1CC2 (stereo partly drawn) [Example 101, (S)-quinuclidin-3-yl (6-(2,4-difluorophenyl)-2,2-dimethyl-1,2,3,4-tetrahydronaphthalen-1-yl)carbamate] | 1.59 nM | 2.55 nM
7 | COc1cccc(-c2ccc3c(c2)CCC2(CC2)C3NC(=O)O[C@@H]2CN3CCC2CC3)c1OC (stereo partly drawn) [Example 209, (S)-quinuclidin-3-yl (6′-(2,3-dimethoxyphenyl)-3′,4′-dihydro-1′H-spiro[cyclopropane-1,2′-naphthalen]-1′-yl)carbamate] | 15.2 nM | 47 nM
8 | COCOc1ccc(-c2ccc3c(c2)C(NC(=O)O[C@@H]2CN4CCC2CC4)C2(CC3)CC2)cc1 (stereo partly drawn) [Example 185, (S)-quinuclidin-3-yl (7′-(4-(methoxymethoxy)phenyl)-3′,4′-dihydro-1′H-spiro[cyclopropane-1,2′-naphthalen]-1′-yl)carbamate] | 14.8 nM | 73 nM
9 | O=C(NC1CCCc2ccc(-c3ccc(F)cc3)cc21)O[C@@H]1CN2CCC1CC2 (stereo partly drawn) [Example 55, (S)-quinuclidin-3-yl (7-(4-fluorophenyl)-1,2,3,4-tetrahydronaphthalen-1-yl)carbamate] | 34.1 nM | 110 nM
10 | O=C(NC1CCCc2cc(-c3ccc(F)c(F)c3)ccc21)O[C@@H]1CN2CCC1CC2 (stereo partly drawn) [Example 15, (S)-quinuclidin-3-yl (6-(3,4-difluorophenyl)-1,2,3,4-tetrahydronaphthalen-1-yl)carbamate] | 6.88 nM | 19.7 nM
11 | COCCOc1cccc(-c2ccc3c(c2)CCCC3NC(=O)O[C@@H]2CN3CCC2CC3)c1 (stereo partly drawn) [Example 27, (S)-quinuclidin-3-yl (6-(3-(2-methoxyethoxy)phenyl)-1,2,3,4-tetrahydronaphthalen-1-yl)carbamate] | 2.49 nM | 30.3 nM
12 | CCc1ccc(-c2ccc3c(c2)CCC2(CC2)C3NC(=O)O[C@@H]2CN3CCC2CC3)cc1 (stereo partly drawn) [Example 221, (S)-quinuclidin-3-yl (6′-(4-ethylphenyl)-3′,4′-dihydro-1′H-spiro[cyclopropane-1,2′-naphthalen]-1′-yl)carbamate] | 2.01 nM | 18.8 nM
13 | O=C(NC1CCCc2ccc(-c3cc(Cl)ccc3Cl)cc21)O[C@@H]1CN2CCC1CC2 (stereo partly drawn) [Example 71, (S)-quinuclidin-3-yl (7-(2,5-dichlorophenyl)-1,2,3,4-tetrahydronaphthalen-1-yl)carbamate] | 22.8 nM | 95.4 nM
14 | CCCc1ccc(-c2cc3c(cc2F)C(NC(=O)O[C@@H]2CN4CCC2CC4)C(C)(C)CC3)cc1 (stereo partly drawn) [Example 229, (S)-quinuclidin-3-yl (7-fluoro-2,2-dimethyl-6-(4-propylphenyl)-1,2,3,4-tetrahydronaphthalen-1-yl)carbamate] | 0.31 nM | 1.7 nM
15 | COc1cc2c(cc1-c1ccc(CC(C)C)cc1)CCC(C)(C)C2NC(=O)O[C@@H]1CN2CCC1CC2 (stereo partly drawn) [Example 236, (S)-quinuclidin-3-yl (6-(4-isobutylphenyl)-7-methoxy-2,2-dimethyl-1,2,3,4-tetrahydronaphthalen-1-yl)carbamate] | 0.53 nM | 3.2 nM
16 | COc1cc(-c2ccc3c(c2)CCC(C)(C)C3NC(=O)O[C@@H]2CN3CCC2CC3)ccn1 (stereo partly drawn) [Example 116, (S)-quinuclidin-3-yl (6-(2-methoxypyridin-4-yl)-2,2-dimethyl-1,2,3,4-tetrahydronaphthalen-1-yl)carbamate] | 8.62 nM | 7.76 nM

Row | Compound | IC50 [1] | IC50 (GM1 production)
17 | O=C(NC1c2cc(-c3ccc(OC(F)F)cc3)ccc2CCC12CC2)O[C@@H]1CN2CCC1CC2 (stereo partly drawn) [Example 184, (S)-quinuclidin-3-yl (7′-(4-(difluoromethoxy)phenyl)-3′,4′-dihydro-1′H-spiro[cyclopropane-1,2′-naphthalen]-1′-yl)carbamate] | 7.52 nM | 87 nM
18 | COCOc1ccc(-c2ccc3c(c2)CCC(C)(C)C3NC(=O)O[C@@H]2CN3CCC2CC3)cc1 (stereo partly drawn) [Example 113, (S)-quinuclidin-3-yl (6-(4-(methoxymethoxy)phenyl)-2,2-dimethyl-1,2,3,4-tetrahydronaphthalen-1-yl)carbamate] | 0.94 nM | 0.964 nM
19 | COc1cccc(-c2ccc3c(c2)CCC(C)(C)C3NC(=O)O[C@@H]2CN3CCC2CC3)c1OC (stereo partly drawn) [Example 133, (S)-quinuclidin-3-yl (6-(2,3-dimethoxyphenyl)-2,2-dimethyl-1,2,3,4-tetrahydronaphthalen-1-yl)carbamate] | 1.05 nM | 1 nM
20 | CC1(C)CCc2ccc(-c3cccc(OC(F)(F)F)c3)cc2C1NC(=O)O[C@@H]1CN2CCC1CC2 (stereo partly drawn) [Example 158, (S)-quinuclidin-3-yl (2,2-dimethyl-7-(3-(trifluoromethoxy)phenyl)-1,2,3,4-tetrahydronaphthalen-1-yl)carbamate] | 34.2 nM | 249 nM
21 | CC1(C)CCc2ccc(-c3ccccc3C(F)(F)F)cc2C1NC(=O)O[C@@H]1CN2CCC1CC2 (stereo partly drawn) [Example 161, (S)-quinuclidin-3-yl (2,2-dimethyl-7-(2-(trifluoromethyl)phenyl)-1,2,3,4-tetrahydronaphthalen-1-yl)carbamate] | 26.5 nM | 122 nM
22 | COCOc1cccc(-c2ccc3c(c2)CCCC3NC(=O)O[C@@H]2CN3CCC2CC3)c1 (stereo partly drawn) [Example 28, (S)-quinuclidin-3-yl (6-(3-(methoxymethoxy)phenyl)-1,2,3,4-tetrahydronaphthalen-1-yl)carbamate] | 1.33 nM | 5.31 nM
23 | O=C(NC1CCCc2ccc(-c3ccccc3C(F)(F)F)cc21)O[C@@H]1CN2CCC1CC2 (stereo partly drawn) [Example 63, (S)-quinuclidin-3-yl (7-(2-(trifluoromethyl)phenyl)-1,2,3,4-tetrahydronaphthalen-1-yl)carbamate] | 6.7 nM | 41.8 nM
24 | CCOc1cccc(-c2ccc3c(c2)CCC2(CC2)C3NC(=O)O[C@@H]2CN3CCC2CC3)c1 (stereo partly drawn) [Example 218, (S)-quinuclidin-3-yl (6′-(3-ethoxyphenyl)-3′,4′-dihydro-1′H-spiro[cyclopropane-1,2′-naphthalen]-1′-yl)carbamate] | 19.8 nM | 63.3 nM
25 | CC(C)c1cccc(-c2ccc3c(c2)CCC(C)(C)C3NC(=O)O[C@@H]2CN3CCC2CC3)c1 (stereo partly drawn) [Example 129, (S)-quinuclidin-3-yl (6-(3-isopropylphenyl)-2,2-dimethyl-1,2,3,4-tetrahydronaphthalen-1-yl)carbamate] | 2.08 nM | 1.3 nM
26 | COCOc1cccc(-c2ccc3c(c2)C(NC(=O)O[C@@H]2CN4CCC2CC4)C(C)(C)CC3)c1 (stereo partly drawn) [Example 169, (S)-quinuclidin-3-yl (7-(3-(methoxymethoxy)phenyl)-2,2-dimethyl-1,2,3,4-tetrahydronaphthalen-1-yl)carbamate] | 40.9 nM | 442 nM
27 | COc1ccc(-c2ccc3c(c2)CCC(C)(C)C3NC(=O)O[C@@H]2CN3CCC2CC3)cc1OC (stereo partly drawn) [Example 137, (S)-quinuclidin-3-yl (6-(3,4-dimethoxyphenyl)-2,2-dimethyl-1,2,3,4-tetrahydronaphthalen-1-yl)carbamate] | 2.14 nM | 8.4 nM
28 | COc1cc(-c2ccc3c(c2)CCCC3NC(=O)O[C@@H]2CN3CCC2CC3)ccn1 (stereo partly drawn) [Example 51, (S)-quinuclidin-3-yl (6-(2-methoxypyridin-4-yl)-1,2,3,4-tetrahydronaphthalen-1-yl)carbamate] | 9.42 nM | 426 nM
29 | O=C(NC1c2cc(-c3ccc(F)cc3)ccc2CCC12CC2)O[C@@H]1CN2CCC1CC2 (stereo partly drawn) [Example 171, (S)-quinuclidin-3-yl (7′-(4-fluorophenyl)-3′,4′-dihydro-1′H-spiro[cyclopropane-1,2′-naphthalen]-1′-yl)carbamate] | 5.33 nM | 94.9 nM
30 | O=C(NC1CCCc2ccc(-c3ccc(F)c(F)c3F)cc21)O[C@@H]1CN2CCC1CC2 (stereo partly drawn) [Example 69, (S)-quinuclidin-3-yl (7-(2,3,4-trifluorophenyl)-1,2,3,4-tetrahydronaphthalen-1-yl)carbamate] | 40.5 nM | 220 nM
31 | CC(C)(C)c1cccc(-c2ccc3c(c2)CCC(C)(C)C3NC(=O)O[C@@H]2CN3CCC2CC3)c1 (stereo partly drawn) [Example 128, (S)-quinuclidin-3-yl (6-(3-(tert-butyl)phenyl)-2,2-dimethyl-1,2,3,4-tetrahydronaphthalen-1-yl)carbamate] | 2.84 nM | 1.3 nM
